# Assay results as given in patent US20250154212A1, “METHOD OF DISRUPTING MEMORY AND LIPOPEPTIDE FOR USE IN SUCH METHOD” (The Research Foundation for The State University of New York, priority 2023, published 2025).
# Columns and labels:
# [1] = tested on: contextual fear/threat memory; assay: Contextual fear/threat conditioning, infusion into dorsal hippocampus, wild-type mice; type: in vivo, mouse; details: 10 nmol in 0.5 μl per hemisphere in hippocampus, tested 24 h post-infusion
# Experimental: Mice were 8-10 weeks old at the time of cannulation and 9-11 weeks at the beginning of behavioral experiments. Mice were housed with cage-mates in plastic cages and provided with food and water ad libitum. Mice were maintained on a 12 h light/dark cycle (lights on at 7:00 am) and behavioral experiments began at 9:00 am.
# Mice were injected intraperitoneally (1 ml/100 g body weight) with an anesthetic cocktail containing ketamine (10 mg/ml) and xylazine (2 mg/ml). Mice were provided with analgesic treatment prior to surgery (carprofen; 5 mg/ml). Guide cannulae (Plastics One, Roanoke, VA) were implanted bilaterally in the dorsal hippocampus (from bregma: AP-2.1 mm; L+/−1.8 mm; DV-1.2 mm) and secured to the skull with three jeweler's screws and dental cement. Antisedan (0.66 ml/100 g body weight of 0.5 mg drug/ml solution) was given via i.p. injection after surgery to reverse the anesthesia.
# For 7 days following surgery, mice were handled by freely exploring the experimenter's palm for 2-5 min. Mice were trained and tested in the same conditioning box (Coulbourn Habitest, Coulboum Instruments), which consisted of a grid floor and blank walls. […] Freezing behavior (cessation of all movement except breathing) during the 4 min session was recorded by an experimenter blind to the conditions. […]
# [2] = tested on: KIBRA with conventional PKCs (PKCα, PKCβI, PKCβII, PKCγ); assay: BiFC assay of KIBRA with conventional PKCs in HEK293T cells; type: cell-based, human; details: 10 μM
# Experimental: KIBRA-PKMζ BiFC was performed as previously described (28), using pVen1-FLAG-KIBRA and pVen2-HA-PKMζ, in which PKMζ was cloned between EcoR1 and BamH1 sites. The constructs pVen1 and pVen2 encode the N-terminus (amino acids 1-154) and C-terminus (amino acids 155-238) of the Venus protein, respectively, and the Venus fragments were on the N-terminal of the fusion proteins. pVen2-HA-PKMζ[PKCι/λ-P291Q;F297S] was generated by site-directed mutagenesis using forward-cctggagAagcAAatceggatcccccggtCcctgtccgte and reverse-gacggacaggGaccgggggatccggatTTgctTctccagg primers and the QuickChange II XL Site-Directed Mutagenesis Kit (Agilent Technologies), following manufacturer's instructions. Additional pVen2-HA-PKC isoforms and pVen2-HA-CaMKIIα in the pVen2-HA vector were generated by cloning the N-terminus of the coding sequence of each kinase (table S1) to obtain an in-frame fusion at the C-terminus of the pVen2-HA. Human versions of KIBRA and kinases were used, and all PCR amplified sequences and constructs were verified by DNA sequencing.
# HEK293T cells were cultured in Dulbecco's Modified Eagle's Medium supplemented with 10% heat-inactivated fetal bovine serum, 100 U/ml penicillin, […] streptomycin, 2 mM glutamine, and 10 mM HEPES in a T75 tissue culture flask with canted neck and ventilated cap. […]
structure (smiles),measurement,setting,value
"O=S(=O)(O)c1cc(O)c2c(S(=O)(=O)O)cc(S(=O)(=O)O)cc2c1 [ζ-stat, 1-naphthol-3,6,8-trisulphonic acid]",contextual fear/threat memory (% time freezing),[1],has no effect
same,effect on BiFC of KIBRA with conventional PKCs,[2],has no effect
